{"source": "patent US20250221966A1", "about": "“RXFP1 AGONISTS” (BRISTOL-MYERS SQUIBB COMPANY, priority 2021, published 2025)", "key": {"[1]": {"settings": "intravenous (IV) formulation; cited from earlier work"}, "human RXFP1": {"target": "T1, human RXFP1 (Homo sapiens, UniProt Q9HBX9)", "T1 construct": "expressed in transfected cells", "T1 sequence (Q9HBX9 1-757)": "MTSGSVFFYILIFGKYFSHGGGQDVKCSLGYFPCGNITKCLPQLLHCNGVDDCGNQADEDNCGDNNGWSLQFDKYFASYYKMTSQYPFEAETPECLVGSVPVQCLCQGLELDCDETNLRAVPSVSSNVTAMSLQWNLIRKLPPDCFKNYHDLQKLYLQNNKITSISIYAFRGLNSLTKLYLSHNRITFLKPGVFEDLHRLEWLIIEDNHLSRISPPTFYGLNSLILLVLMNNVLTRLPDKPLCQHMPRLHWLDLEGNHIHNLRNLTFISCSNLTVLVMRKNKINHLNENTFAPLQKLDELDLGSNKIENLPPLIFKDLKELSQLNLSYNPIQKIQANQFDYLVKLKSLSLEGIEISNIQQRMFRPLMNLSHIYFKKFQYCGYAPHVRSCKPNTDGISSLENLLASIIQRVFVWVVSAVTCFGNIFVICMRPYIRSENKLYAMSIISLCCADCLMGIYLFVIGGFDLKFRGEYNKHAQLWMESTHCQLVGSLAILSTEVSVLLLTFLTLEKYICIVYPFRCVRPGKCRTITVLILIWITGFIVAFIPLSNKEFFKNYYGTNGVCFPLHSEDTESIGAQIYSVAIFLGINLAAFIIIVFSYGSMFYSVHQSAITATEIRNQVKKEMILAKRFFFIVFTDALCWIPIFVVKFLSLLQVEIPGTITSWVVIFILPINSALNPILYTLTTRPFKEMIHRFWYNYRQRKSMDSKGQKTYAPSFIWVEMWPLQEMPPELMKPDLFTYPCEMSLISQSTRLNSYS", "assay": "RXFP1 cAMP assay (hRXFP1 HEK293 cAMP assay, HTRF)", "format": "cell-based", "settings": "HEK293 cells stably expressing human RXFP1, 30 min at room temperature, read-out: cAMP hRXFP1 HEK293 Assay EC50", "procedure,_shortened": "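Intracellular cAMP was read by HTRF, with potency fitted to a 4-parameter logistic curve. Compound exposure (0.010 nM–50 μM final, 2% DMSO) lasted 30 min at room temperature. Cells were hRXFP1-HEK293 at 1500 per well in IBMX-containing (0.5 mM) HEPES-buffered HBSS.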"}}}
{"compound": "Serelaxin", "values": [{"measurement": "first-phase pharmacokinetic half-life", "setting": "[1]", "value": 5.4, "unit": "min"}]}
{"compound": "COC(=O)N1Cc2cccc(-c3ccc(OC)c(C(=O)N[C@@H]4C5CCC(/C5=C/C5CC5)[C@@H]4C(=O)Nc4ccc(F)c(C(F)(F)F)c4)c3)c2C1", "note": "(stereo partly shown) [compound 881]", "values": [{"measurement": "EC50", "setting": "human RXFP1", "value": 3.1, "unit": "nM"}]}
{"compound": "COc1ccc(C2=NOC3COCC23)cc1C(=O)N[C@H]1[C@@H](C(=O)NC2CCC(C#N)C2)[C@H]2CC[C@@H]1/C2=C\\C1CC1", "note": "(stereo partly shown) [Example 664]", "values": [{"measurement": "EC50", "setting": "human RXFP1", "value": 367, "unit": "nM"}]}
{"compound": "CCOC(=O)c1c(-c2ccc(F)cc2)[nH]c2ccc(-c3ccc(OC)c(C(=O)N[C@@H]4C5CCC(/C5=C/C(F)(F)F)[C@@H]4C(=O)Nc4ccc(F)c(C(F)(F)F)c4)c3)cc12", "note": "(stereo partly shown) [compound 298]", "values": [{"measurement": "EC50", "setting": "human RXFP1", "value": 70, "unit": "nM"}]}
